Source: patent US8183243B2, “Melanocortin receptor agonists” (LG Life Sciences Ltd., priority 2008, dated 2012)

These compounds were tested against T1, MC4R (Homo sapiens, UniProt P32245) (assay: MCR agonistic activity (luciferase assay / cAMP accumulation assay) on MC4R). Conditions: HEK cell lines expressing MC4R; method A (CRE-luciferase) or B (cAMP accumulation), not said which; read-out: EC50 value, agonistic activity to MC4R (range per group of Examples).
T1 construct: expressed in transfected cells; host or cells: HEK (Human Embryonic Kidney) permanent expression cell line HEK MC4R-Luc, co-expressing CRE-luciferase
T1 sequence (P32245 whole entry, species assumed): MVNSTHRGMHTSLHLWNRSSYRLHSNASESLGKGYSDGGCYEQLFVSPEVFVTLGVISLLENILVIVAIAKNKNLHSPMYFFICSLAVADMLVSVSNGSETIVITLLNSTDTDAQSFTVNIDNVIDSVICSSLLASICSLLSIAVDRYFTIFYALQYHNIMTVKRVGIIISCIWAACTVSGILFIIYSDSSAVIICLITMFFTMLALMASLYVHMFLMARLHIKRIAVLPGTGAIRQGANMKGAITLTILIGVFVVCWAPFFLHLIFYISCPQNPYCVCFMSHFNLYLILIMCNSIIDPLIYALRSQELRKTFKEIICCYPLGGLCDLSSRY
Assay type: cell-based
How it was run: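 HEK cells stably expressing MC4R with a CRE-luciferase reporter treated 5 hours at 37 °C with serially diluted agonist (≤1% DMSO); luminescence expressed relative to 10 nM NDP-MSH, EC50 at half-maximal signal. Alternatively, cAMP measured after 30 minutes with compound plus 500 μM IBMX by [3H]-cAMP competition binding.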

SMILES	EC50 [nM]
CN1CCN(C(=O)[C@@H]2C[C@H](N(C(=O)[C@@H]3CCCO3)c3ccc(F)cc3F)CN2C(=O)[C@@H]2CN(C(C)(C)C)C[C@H]2c2ccc(Cl)cc2)CC1 [Example 77, (2S)-N-{(3S,5S)-1-{[(3S,4R)-1-tert-butyl-4-(4-chlorophenyl)pyrrolidin-3-yl]carbonyl}-5-[(4-methylpiperazin-1-yl)carbonyl]pyrrolidin-3-yl}-N-(2,4-difluorophenyl)tetrahydrofuran-2-carboxamide]	10 to 100
CC(C)C(=O)N(c1ccc(F)cc1F)[C@H]1C[C@@H](C(=O)N2CCNCC2)N(C(=O)[C@@H]2CN(C(C)(C)C)C[C@H]2c2ccc(Cl)cc2)C1 [Example 78, N-[(3S,5S)-1-{[(3S,4R)-1-tert-butyl-4-(4-chlorophenyl)pyrrolidin-3-yl]carbonyl}-5-(piperazin-1-ylcarbonyl)pyrrolidin-3-yl]-N-(2,4-difluorophenyl)-2-methylpropanamide]	0.1 to 10
CN1CCN(C(=O)[C@@H]2C[C@H](N(C(=O)C(C)(C)C)c3ccc(F)cc3F)CN2C(=O)[C@@H]2CN(C(C)(C)C)C[C@H]2c2ccc(Cl)cc2)CC1 [Example 80, N-{(3S,5S)-1-{[(3S,4R)-1-tert-butyl-4-(4-chlorophenyl)pyrrolidin-3-yl]carbonyl}-5-[(4-methylpiperazin-1-yl)carbonyl]pyrrolidin-3-yl}-N-(2,4-difluorophenyl)-2,2-dimethylpropanamide]	0.1 to 10
CC(C)(C)C(=O)N(c1ccc(F)cc1F)[C@H]1C[C@@H](C(=O)N2CCNCC2)N(C(=O)[C@@H]2CN(C(C)(C)C)C[C@H]2c2ccc(Cl)cc2)C1 [Example 81]	0.1 to 10
CN1CCN(C(=O)[C@@H]2C[C@H](N(C(=O)C(C)(C)C)c3ccc(F)cc3F)CN2C(=O)[C@@H]2CN(C(C)(C)C)C[C@H]2c2ccc(F)cc2F)CC1 [Example 82, N-{(3S,5S)-1-{[(3S,4R)-1-tert-butyl-4-(2,4-difluorophenyl)pyrrolidin-3-yl]carbonyl}-5-[(4-methylpiperazin-1-yl)carbonyl]pyrrolidin-3-yl}-N-(2,4-difluorophenyl)-2,2-dimethylpropanamide]	0.1 to 10
CN1CCN(C(=O)[C@@H]2C[C@H](N(C(=O)c3ccco3)c3ccc(F)cc3F)CN2C(=O)[C@@H]2CN(C(C)(C)C)C[C@H]2c2ccc(Cl)cc2)CC1 [Example 83, N-{(3S,5S)-1-{[(3S,4R)-1-tert-butyl-4-(4-chlorophenyl)pyrrolidin-3-yl]carbonyl}-5-[(4-methylpiperazin-1-yl)carbonyl]pyrrolidin-3-yl}-N-(2,4-difluorophenyl)-2-furamide]	10 to 100
